“Also recorded” adds a separate entry of the source.
Legend:
α-Syn fibrils [1] = biological target: T1, α-Syn fibrils (Homo sapiens, UniProt P37840); experiment: LDH cytotoxicity assay of α-Syn fibrils formed in presence of curcumin analogs; assay type: cell-based; settings: SH-SY5Y cells
T1 construct: made in house; host or cells: Escherichia coli BL21
From the text: The percent LDH release was plotted as difference in the absorbance value of 490 nm and 690 nm, considering 100% release for the TritonX-100 treated cells.

α-Syn fibrils [2] = biological target: T1, α-Syn fibrils; experiment: MTT assay of α-Syn fibrils formed in presence of curcumin analogs; assay type: cell-based; settings: 10 μM α-Syn fibril, 36 h, SH-SY5Y
Experimental: Next, we measured the effect of α-Syn fibrils formed in presence and absence of curcumin analogs on the viability of SH-SY5Y neuronal cell line by MTT reduction assay. SH-SY5Y cells were incubated with 10 μM α-Syn fibril formed in presence of various curcumin analogs for 36 h. […] However, the extent of decrease in toxicity was different for different analogs. […] The calcein-AM/ethidium homodimer-1 staining also further corroborated the results obtained from MTT and LDH assay (Fig. 8C).

α-Syn fibrils [3] = biological target: T1, α-Syn fibrils; experiment: Binding affinity to α-Syn fibrils by curcumin analog fluorescence
Experimental: To estimate the comparative binding affinity of curcumin analogs to the α-Syn fibrils and oligomers, curcumin fluorescence assay was performed for each analog. For binding study with fibrils, 10 μM of α-Syn fibrils were incubated in presence of varying concentration of curcumin and its analogs (0.25 μM to 30 μM) for 30 min at RT in dark and then fluorescence spectra were recorded. The normalized fluorescence intensity of different concentrations of curcumin/analogs at their corresponding λmax was plotted to obtain their respective saturation plots (Figs 6A and S7). From the saturation plot, dissociation constant (Kd) was calculated (see method section).
The binding of curcumin/analogs to α-Syn fibrils were determined based on change in fluorescence intensity. For this study, 10 μM α-Syn fibrils were incubated in presence and absence of varying concentration of curcumin/analogs (0.25 μM to 30 μM) for 30 min at RT in dark. Immediately after incubation, fluorescence study was performed (for the excitation and emission ranges for each compounds, see Fig. S1). Experiments were performed using FluoroMax-4 spectrofluorometer (HORIBA JobinYvon) with excitation and emission slit widths of 5 nm. The maximum fluorescence intensity for curcumin/analogs was normalized with respect to that of the lowest concentration of each analog. The normalized fluorescence intensity was plotted against increasing concentration of curcumin/analogs and the dissociation constant was determined using the equation
where, “ΔF” is the change in the fluorescence intensity of curcumin/analogs, “ΔFmax” is the change in the fluorescence intensity at saturation point and “L”is the concentration of curcumin/analogs. The data were analyzed in Graphpad Prism software according to established method as used previously. Similarly, the dissociation constant of curcumin and its analogs with preformed α-Syn oligomers and monomers (obtained from SEC) were also determined.

Which results are given for `COc1cc(/C=C/C(=O)CC(=O)/C=C/c2ccc(OCc3ccccc3)c(OC)c2)ccc1OCc1ccccc1` [C6]?
toxicity of α-Syn fibrils formed in presence of analog, LDH (α-Syn fibrils [1]): less toxicity to cells; toxicity of α-Syn fibrils formed in presence of analog, MTT (α-Syn fibrils [2]): maximum cell viability; also recorded: less toxicity to cells; Kd (α-Syn fibrils [3]; 10 μM fibrils, 0.25–30 μM analog, 30 min RT, read-out: dissociation constant (Kd) for α-Syn fibrils): 0.482 ± 0.07 µM; binding with preformed α-Syn fibrils (α-Syn fibrils [3]; compound fluorescence): highest binding

Source: article PMC4919791, “Effect of curcumin analogs onα-synuclein aggregation and cytotoxicity” (Scientific Reports, 2016)
